Like-named read-outs stand apart in the source and are kept apart here.
Experiments:
[1] = system: M. marinum in BV2 microglial cells; assay type: cell-based, Mycobacterium marinum
[2] = system: Mtb H37Rv in THP-1; design: method as in Sorrentino et al, 2015; conditions: ref Sorrentino et al, 2015, cited from earlier work; for Extracellular MIC90/ Inracellular MIC90: ratio
[3] = system: Mtb H37Rv; design: method as in Sorrentino et al, 2015; conditions: ref Sorrentino et al, 2015; cited from earlier work
[4] = system: M. marinum luxCDABE; assay type: cell-based, Mycobacterium marinum; conditions: 10 µM
[5] = system: M. marinum in A. castellanii; assay type: cell-based, Mycobacterium marinum; conditions: 10 µM
[6] = system: M. marinum GFP; assay type: cell-based, Mycobacterium marinum; conditions: 10 µM; antibiotic assay
[7] = system: D. discoideum GFP-ABD; conditions: 10 µM
[8] = THP1 / Mtb H37Rv infection assay

SMILES	IC50 [1]	BV2 / M. marinum normalised growth, control=1.00, mean ([1]; 10 µM)	Intracelullar MIC90 in THP-1 [2, 8]	Extracellular MIC90/ Inracellular MIC90 [2]	Extracellular MIC90 [3]	M. marinum luxCDABE normalised growth, control=1.00, mean [4]	A. castellanii / M. marinum normalised growth, control=1.00, mean [5]	M. marinum GFP normalised growth, control=1.00, mean [6]	D. discoideum GFP-ABD normalised growth, control=1.00, mean [7]	anti-infective properties in microglial cell (BV2) infection assay ([1]; 10 µM)	hit in BV2/M. marinum assay True/False ([1]; 10 µM)	Intracelullar MIC90 in THP-1 ([2]; Mtb H37Rv-infected THP1 cells)	M. marinum luxCDABE normalised growth, control = 1.00, mean [4]	Hits A. castellanii/M. marinum assay True/False [5]	anti-infective properties in A. castellanii infection assay [5]	D. discoideum GFP-ABD normalised growth, control = 1.00, mean [7]
Nc1cccnc1Nc1ccc(Cl)cc1 [GR135486X]	10.8 µM	0.75	5.55 µM	0.04	0.2 µM	1.00	0.97	0.83	0.35							
Br.CC(C)(C)c1ccccc1OCCCON1C(=N)N=C(N)NC1(C)C [BRL-7940SA]	3.14 µM	0.53	1.85 µM	1.24	2.3 µM	0.00	2.62	0.04	0.67							
CN1CCN(c2cc(-c3ccncc3)nc(-c3ccccc3)n2)CC1 [GSK275984A]	5.11 µM	0.62	5.55 µM	1.62	9 µM	0.065	1.13	0.26	0.52							
COc1ccccc1OCCCCn1c(C2CC2)nc2ccccc21 [GSK994258A]	8.73 µM	0.59	5.55 µM	0.61	3.4 µM	0.00	1.03	0.10	0.31							
O=C(NC(Cc1ccccc1)C(=O)Nc1ccccc1N1CCOCC1)c1cccs1 (stereo not drawn) [GSK1055950A]	2.84 µM	0.33	1.85 µM	4.11	7.6 µM	0.00	0.24	-0.01	1.07	strong anti-infective properties	TRUE	1.85 µM	0,00	TRUE	strong anti-infective properties	1,07
Cc1ccc2nc(C(F)(F)F)c(C(=O)NCc3ccc(C)o3)n2c1 [GSK1829728A]	4.03 µM	0.43	1.85 µM	1.84	3.4 µM	0.00	0.78	0.10	1.01		TRUE	1.85 µM	0,00	FALSE		1,01
Nc1nc(N)c2c(Sc3ccc4ccccc4c3)cccc2n1 [GW369335X]	4.87 µM	0.71	5.55 µM	1.57	8.7 µM	0.20	0.37	0.14	0.97		FALSE	5.55 µM		TRUE		

From article PMC5834492, “Antimycobacterial drug discovery using Mycobacteria-infected amoebae identifies anti-infectives and new molecular targets” (Scientific Reports, 2018)
